Assay results: patent US20260285853A1, “COMPOUNDS AND METHODS FOR MODULATING SPLICING” (REMIX THERAPEUTICS INC., priority 2023, published 2026)
Structures can show the parent of a compound that is named as a salt. Where two headings read alike, the source gives them in different places.

Key:
Format in all cases: cell-based
[1] = system: HTT mRNA; experiment: Gene panel canonical junction qPCR assay, decrease in CJ mRNA, Table 3
Method in brief: (§1)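 IC50 is the concentration giving 50% response in decrease of the canonical junction transcript, fitted with a 4-parameter logistic equation. Transcripts were quantified by RT-qPCR in A673 or K562 cells after 24 h exposure to compounds dosed up to 10 uM in 3-fold steps.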

[2] = system: MYB mRNA; experiment: as above
Method in brief: as §1

[3] = system: SH-SY5Y (human neuroblastoma) cells; experiment: Cell viability, Cell Titer Glo 2.0 assay; conditions: read-out: Viability SHSY5Y.3 GI50
Method in brief: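 Steps: serial DMSO dilution of compound, 1:100 dilution into medium, addition to cells (0.1% DMSO final). Incubate 72 h at 37 °C, 5% CO2. Assay with CellTiter-Glo 2.0 reagent.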

[4] = system: HTT mRNA; experiment: Splicing RT-qPCR assay (THP), Table 2A
[5] = system: MYB mRNA; experiment: Splicing RT-qPCR assay (THP), Table 2A
[6] = decrease in CJ mRNA levels, canonical junction qPCR, gene panel
[7] = Table 2A, THP, HTT alternative junction (AJ) mRNA, read-out: HTT AJ (AC50, increase in alternative junction mRNA)
[8] = Table 2A, THP, HTT canonical junction (CJ) mRNA, read-out: HTT CJ (IC50, decrease in canonical junction mRNA)
[9] = Table 2A, THP, MYB alternative junction (AJ) mRNA, read-out: MYB AJ (AC50, increase in alternative junction mRNA)
[10] = Table 2A, THP, MYB canonical junction (CJ) mRNA, read-out: MYB CJ (IC50, decrease in canonical junction mRNA)
[11] = decrease in canonical junction (CJ) mRNA, gene panel qPCR, Table 3
[12] = Table 2A (THP), AJ mRNA increase, read-out: HTT AJ (increase in alternative junction mRNA, AC50)
[13] = Table 2A (THP), CJ mRNA decrease, read-out: HTT CJ (decrease in canonical junction mRNA, IC50)
[14] = Table 2A (THP), AJ mRNA increase, read-out: MYB AJ (increase in alternative junction mRNA, AC50)
[15] = Table 2A (THP), CJ mRNA decrease, read-out: MYB CJ (decrease in canonical junction mRNA, IC50)

Row | IC50 [1, 6] | IC50 [2, 6] | GI50 [3] | IC50 [4, 8] | IC50 [5, 10] | IC50 [1, 11] | IC50 [2, 11] | IC50 [4, 13] | IC50 [5, 15] | Compound | AC50 [4, 7] | AC50 [5, 9] | AC50 [4, 12] | AC50 [5, 14]
1 | > 10 µM | > 10 µM | > 10 µM | > 10 µM | > 10 µM | – | – | – | – | Cc1cn2cc(NC(=O)c3ccc(N4CCCC(N)C4)c4cn(C)nc34)nc2c(CNS(C)(=O)=O)n1 (centres unmarked) [Compound 866] | > 10 µM | > 10 µM | – | –
2 | > 10 µM | 0.1 to 1 µM | 1 to 10 µM | > 10 µM | 0.1 to 1 µM | – | – | – | – | C=CCNC1CCN(c2ccc(C(=O)Nc3cc(CO)c4nn(C)cc4c3)c3nn(C)cc23)CC1 [Compound 794, 4-[4-(allylamino)-1-piperidyl]-N-[7-(hydroxymethyl)-2-methyl-indazol-5-yl]-2-methyl-indazole-7-carboxamide] | > 10 µM | 1 to 10 µM | – | –
3 | 1 to 10 µM | 1 to 10 µM | 1 to 10 µM | 1 to 10 µM | 1 to 10 µM | – | – | – | – | COc1cc2c(N3CCC(NC4CC4)CC3)ccc(C(=O)Nc3cc(C)c4nc(C)cn4n3)n2n1 [Compound 695, 4-[4-(cyclopropylamino)-1-piperidyl]-N-(2,8-dimethylimidazo[1,2-b]pyridazin-6-yl)-2-methoxy-pyrazolo[1,5-a]pyridine-7-carboxamide] | 1 to 10 µM | 1 to 10 µM | – | –
4 | – | – | 1 to 10 µM | – | – | > 10 µM | > 10 µM | > 10 µM | > 10 µM | COc1cc2nn(C)cc2cc1NC(=O)c1c(C2CC2)cc(N2CCC(NC3CC3)CC2)c2cn(C)nc12 [Compound 466, 6-cyclopropyl-4-[4-(cyclopropylamino)-1-piperidyl]-N-(6-methoxy-2-methyl-indazol-5-yl)-2-methyl-indazole-7-carboxamide] | – | – | > 10 µM | > 10 µM
5 | 0.1 to 1 µM | 0.1 to 1 µM | 0.1 to 1 µM | 0.1 to 1 µM | 0.1 to 1 µM | – | – | – | – | COc1nc2c(C(=O)Nc3cc4cn(C)nc4cc3OC)ccc(N3CCC(NC4CC4)CC3)c2o1 [Compound 681, 7-[4-(cyclopropylamino)-1-piperidyl]-2-methoxy-N-(6-methoxy-2-methyl-indazol-5-yl)-1,3-benzoxazole-4-carboxamide] | 0.1 to 1 µM | < 0.1 µM | – | –
6 | – | – | > 10 µM | – | – | > 10 µM | > 10 µM | > 10 µM | > 10 µM | COc1cc2nn(C)cc2cc1NC(=O)c1ccc(N2CC(C3CNC3)C2)c2cn(C)nc12 [Compound 509] | – | – | > 10 µM | > 10 µM
7 | > 10 µM | 1 to 10 µM | 1 to 10 µM | > 10 µM | 1 to 10 µM | – | – | – | – | Cc1cn2cc(NC(=O)c3ccc(N4CCC(NC5CC5)CC4)c4cn(C)nc34)nc2c(CCS(=O)(=O)N(C)C)n1 [Compound 805] | > 10 µM | > 10 µM | – | –
8 | – | – | 0.1 to 1 µM | – | – | 0.1 to 1 µM | 0.1 to 1 µM | 0.1 to 1 µM | 0.1 to 1 µM | Cc1cn2cc(NC(=O)c3ccc(N4CCN(C5CNC5)CC4)c4cn(C)nc34)nc2c(C)n1 [Compound 533] | – | – | 0.1 to 1 µM | 0.1 to 1 µM
9 | 1 to 10 µM | 1 to 10 µM | 1 to 10 µM | 1 to 10 µM | 1 to 10 µM | – | – | – | – | COc1nc2c(C(=O)Nc3cc(CNS(C)(=O)=O)c4nc(C)cn4c3)ccc(N3CCC(NC4CC4)CC3)c2s1 [Compound 855] | 1 to 10 µM | 1 to 10 µM | – | –
10 | 1 to 10 µM | < 0.1 µM | 0.1 to 1 µM | 1 to 10 µM | < 0.1 µM | – | – | – | – | COc1nc2c(C(=O)Nc3cn4cc(C)nc4c(OC)n3)ccc(N3C[C@H](C)N[C@@H](C)C3)c2s1 [Compound 759, 7-((3S,5S)-3,5-dimethylpiperazin-1-yl)-2-methoxy-N-(8-methoxy-2-methylimidazo[1,2-a]pyrazin-6-yl)benzo[d]thiazole-4-carboxamide 2,2,2-trifluoroacetate] | 1 to 10 µM | < 0.1 µM | – | –

The next lines start with the compound.

Row | Compound | IC50 [1, 6] | IC50 [2, 6] | GI50 [3] | IC50 [4, 8] | IC50 [5, 10] | IC50 [1, 11] | IC50 [2, 11] | IC50 [4, 13] | IC50 [5, 15] | AC50 [4, 7] | AC50 [5, 9] | AC50 [4, 12] | AC50 [5, 14]
11 | CCNC1CCN(c2ccc(C(=O)Nc3cn(C)c(=O)cc3OC)c3nn(C)cc23)CC1 [Compound 560, 4-[4-(ethylamino)-1-piperidyl]-N-(4-methoxy-1-methyl-6-oxo-3-pyridyl)-2-methyl-indazole-7-carboxamide] | – | – | > 10 µM | – | – | > 10 µM | 1 to 10 µM | > 10 µM | 1 to 10 µM | – | – | > 10 µM | > 10 µM
12 | COc1cc2nc(CF)cn2cc1NC(=O)c1c(F)cc(N2CCC(NC3CC3)CC2)c2cn(C)nc12 [Compound 407, [cyclopropyl-[1-[6-fluoro-7-[[2-(fluoromethyl)-7-methoxy-imidazo[1,2-a]-pyridin-6-yl]carbamoyl]-2-methyl-indazol-4-y1]-4-piperidyl]amino] 2,2,2-trifluoroacetate] | – | – | 1 to 10 µM | – | – | > 10 µM | < 0.1 µM | > 10 µM | < 0.1 µM | – | – | > 10 µM | < 0.1 µM
13 | CC1OB(O)c2ccc(NC(=O)c3c(F)cc(N4CCC(NC5CC5)CC4)c4cn(C)nc34)cc21 (centres unmarked) [Compound 558, 4-(4-(cyclopropyl-amino)piperidin-1-yl)-6-fluoro-N-(1-hydroxy-3-methyl-1,3-dihydrobenzo[c]-[1,2]oxaborol-5-y1)-2-methyl-2H-indazole-7-carboxamide hydrochloride] | – | – | 0.1 to 1 µM | – | – | > 10 µM | 1 to 10 µM | > 10 µM | 1 to 10 µM | – | – | > 10 µM | 1 to 10 µM
14 | CC(=O)NCc1nc(C)cn2cc(NC(=O)c3ccc(N4CCC(NC5CC5)CC4)c4cn(C)nc34)nc12 [Compound 725, N-[8-(acetamidomethyl)-6-methyl-imidazo[1,2-a]pyrazin-2-yl]-4-[4-(cyclopropylamino)-1-piperidyl]-2-methyl-indazole-7-carboxamide] | > 10 µM | > 10 µM | > 10 µM | > 10 µM | > 10 µM | – | – | – | – | > 10 µM | > 10 µM | – | –
15 | Cc1cn2cc(NC(=O)c3ccc(NC(=O)c4ncc[nH]4)c4[nH]cnc34)cc(F)c2n1 [Compound 610, 2,2,2-trifluoroacetate] | > 10 µM | > 10 µM | > 10 µM | > 10 µM | > 10 µM | – | – | – | – | > 10 µM | > 10 µM | – | –
16 | C[C@H]1CN(c2ccc(C(=O)Nc3cc(F)c4nn(C)cc4c3)c3nc(N)sc23)C[C@H](C)N1 [Compound 700, 2-amino-7-[(3S,5S)-3,5-dimethylpiperazin-1-yl]-N-(7-fluoro-2-methyl-indazol-5-yl)-1,3-benzothiazole-4-carboxamide] | 0.1 to 1 µM | < 0.1 µM | 0.1 to 1 µM | 0.1 to 1 µM | < 0.1 µM | – | – | – | – | 0.1 to 1 µM | < 0.1 µM | – | –
17 | Cc1cn2cc(NC(=O)c3ccc(N4C[C@H](C)N[C@@H](C)C4)c4cn(C)nc34)cc(F)c2n1 [Compound 588, 4-[(3S, 5S)-3,5-dimethylpiperazin-1-yl]-N-(8-fluoro-2-methyl-imidazo[1,2-a]pyridin-6-yl)-2-methyl-indazole-7-carboxamide] | – | – | 0.1 to 1 µM | – | – | 1 to 10 µM | < 0.1 µM | 1 to 10 µM | < 0.1 µM | – | – | 1 to 10 µM | < 0.1 µM
18 | CCNC1CCN(c2ccc(C(=O)Nc3cc(-n4ccccc4=O)c4nc(C)cn4c3)c3nn(C)cc23)CC1 [Compound 366, 4-[4-(ethylamino)-1-piperidyl]-2-methyl-N-[2-methyl-8-(2-oxo-1-pyridyl)imidazo[1,2-a]pyridin-6-yl]indazole-7-carboxamide] | – | – | > 10 µM | – | – | > 10 µM | > 10 µM | > 10 µM | > 10 µM | – | – | > 10 µM | > 10 µM
19 | COc1nc2nc(C)cn2cc1NC(=O)c1ccc(N2CCC(NC3CC3)CC2)c2cn(C)nc12 [Compound 524, 4-[4-(cyclopropyl-amino)-1-piperidyl]-N-(7-methoxy-2-methylimidazo-[1,2-a]-pyrimidin-6-yl)-2-methyl-indazole-7-carboxamide] | – | – | 0.1 to 1 µM | – | – | 1 to 10 µM | < 0.1 µM | 1 to 10 µM | < 0.1 µM | – | – | 1 to 10 µM | < 0.1 µM
20 | CNC1CCN(c2ccc(NC(=O)c3cc4cc(C)nn4cc3OC)c3nn(C)cc23)CC1 [Compound 520, 6-methoxy-2-methyl-N-[2-methyl-4-[4-(methyamino)-1-piperidyl]indazol-7-yl]-pyrazolo[1,5-a] pyridine-5-carboxamide] | – | – | > 10 µM | – | – | > 10 µM | > 10 µM | > 10 µM | > 10 µM | – | – | > 10 µM | > 10 µM
